# Laboratory results reported in US5972955A, “Water soluble C-ring analogues of 20(S)-camptothecin” (Dr. Reddy's Research Foundation, priority 1996, dated 1999).
# “Also recorded” adds a separate entry of the source.
# Legend:
# [1] = test system: NCI's 60 human tumor cell line assay; experiment: NCI 60 human tumor cell line assay, mean growth inhibition (Table 1); assay type: cell-based; conditions: read-out: IC50 = the mean value of the minimum drug concentration of the agent required to produce 50% cell growth inhibition (GI50); mean over NCI's 60 human tumor cell lines; 48 h; Sulforhodamine B
# Method: (§1) Inoculates were allowed a preincubation period of 24 h at 37° C. for stabilization.
# ^a IC50 = the mean value of the minimum drug concentration (μm) of
# NCI's 60 human tumor cell line assay.
# [2] = cited from earlier work
# topoisomerase I = conditions: cited from earlier work
# [3] = in vivo; cited from earlier work
# Human Serum Albumin = conditions: in the presence of HSA at 37° C.; cited from earlier work
# MOLT-4 = experiment: NCI in vitro growth inhibition, leukemia MOLT-4; assay type: cell-based; conditions: Homo sapiens, read-out: 50% Growth Inhibition (GI 50); MOLT-4, leukemia; 48 h
# Method: as §1
# HL 60 = experiment: NCI in vitro growth inhibition, leukemia HL 60; assay type: cell-based; conditions: Homo sapiens, read-out: 50% Growth Inhibition (GI 50); HL 60, leukemia; 48 h
# Method: as §1
# SR = experiment: NCI in vitro growth inhibition, leukemia SR; assay type: cell-based; conditions: Homo sapiens, read-out: 50% Growth Inhibition (GI 50), 48 h
# Method: as §1
# H 460 = experiment: NCI in vitro growth inhibition, NSLC H 460; assay type: cell-based; conditions: Homo sapiens, NCI-H460, read-out: 50% Growth Inhibition (GI 50); H 460, NSLC; 48 h
# Method: as §1
# HOP 62 = experiment: NCI in vitro growth inhibition, NSLC HOP 62; assay type: cell-based; conditions: Homo sapiens, read-out: 50% Growth Inhibition (GI 50); HOP 62, NSLC; 48 h
# Method: as §1
# H 522 = experiment: NCI in vitro growth inhibition, NSLC H 522; assay type: cell-based; conditions: Homo sapiens, NCI-H522, read-out: 50% Growth Inhibition (GI 50); H 522, NSLC; 48 h
# Method: as §1
# H 23 = experiment: NCI in vitro growth inhibition, NSLC H 23; assay type: cell-based; conditions: Homo sapiens, NCI-H23, read-out: 50% Growth Inhibition (GI 50); H 23, NSLC; 48 h
# Method: as §1
# SF-539 = experiment: NCI in vitro growth inhibition, CNS SF-539; assay type: cell-based; conditions: Homo sapiens, read-out: 50% Growth Inhibition (GI 50); SF-539, CNS; 48 h
# Method: as §1
# SF 295 = experiment: NCI in vitro growth inhibition, CNS SF 295; assay type: cell-based; conditions: Homo sapiens, read-out: 50% Growth Inhibition (GI 50); SF 295, CNS; 48 h
# Method: as §1
# 786-O = experiment: NCI in vitro growth inhibition, renal 786-O; assay type: cell-based; conditions: Homo sapiens, 786-0, read-out: 50% Growth Inhibition (GI 50), 48 h
# Method: as §1
# ACHN = experiment: NCI in vitro growth inhibition, renal ACHN; assay type: cell-based; conditions: Homo sapiens, read-out: 50% Growth Inhibition (GI 50), 48 h
# Method: as §1
# LOX IMVI = experiment: NCI in vitro growth inhibition, melanoma LOX IMVI; assay type: cell-based; conditions: Homo sapiens, read-out: 50% Growth Inhibition (GI 50), 48 h
# Method: as §1
# UACC 62 = experiment: NCI in vitro growth inhibition, melanoma UACC 62; assay type: cell-based; conditions: Homo sapiens, read-out: 50% Growth Inhibition (GI 50); UACC 62, melanoma; 48 h
# Method: as §1
# M-14 = experiment: NCI in vitro growth inhibition, melanoma M-14; assay type: cell-based; conditions: Homo sapiens, M14, read-out: 50% Growth Inhibition (GI 50); M-14, melanoma; 48 h
# Method: as §1
# SK MEL-5 = experiment: NCI in vitro growth inhibition, melanoma SK MEL-5; assay type: cell-based; conditions: Homo sapiens, read-out: 50% Growth Inhibition (GI 50); SK MEL-5, melanoma; 48 h
# Method: as §1
# MCF-7 = experiment: NCI in vitro growth inhibition, breast MCF-7; assay type: cell-based; conditions: Homo sapiens, MCF7, read-out: 50% Growth Inhibition (GI 50); MCF-7, breast; 48 h
# Method: as §1
# MCF7/ADR = experiment: NCI in vitro growth inhibition, breast MCF7/ADR; assay type: cell-based; conditions: Homo sapiens, NCI/ADR-RES, read-out: 50% Growth Inhibition (GI 50), 48 h
# Method: as §1
# T 47D = experiment: NCI in vitro growth inhibition, breast T 47D; assay type: cell-based; conditions: Homo sapiens, T47D, read-out: 50% Growth Inhibition (GI 50), 48 h
# Method: as §1
# SF-268 = experiment: NCI in vitro growth inhibition, CNS SF-268; assay type: cell-based; conditions: Homo sapiens, SF-268, 48 h, read-out: 50% Growth Inhibition (GI 50)
# Method: as §1
# CAKI-1 = experiment: NCI in vitro growth inhibition, renal CAKI-1; assay type: cell-based; conditions: Homo sapiens, read-out: 50% Growth Inhibition (GI 50); CAKI-1, renal; 48 h
# Method: as §1
# CCRF-CEM = experiment: NCI in vitro growth inhibition, leukemia CCRF-CEM; assay type: cell-based; conditions: Homo sapiens, read-out: 50% Growth Inhibition (GI 50), 48 h
# Method: as §1
# [4] = compared with 20(RS)-camptothecin; cited from earlier work
structure (smiles),measurement,setting,value
"CCN(CC)CCNC1c2cc3c(OC)cccc3nc2-c2cc3c(c(=O)n21)COC(=O)[C@]3(O)CC (stereo partly shown) [9-Methoxy-5-(N,N-diethylethylenediamino) CPT]",IC50,[1],19100 nM
"CCN(CC)CCCNC1c2cc3c(OC)cccc3nc2-c2cc3c(c(=O)n21)COC(=O)C3(O)CC (stereo not shown) [9-Methoxy-5-(N,N-diethylpropylenediamino) CPT]",IC50,[1],8310 nM
CC[C@@]1(O)C(=O)OCc2c1cc1n(c2=O)C(NCCN2CCOCC2)c2cc3c(OC)cccc3nc2-1 (stereo partly shown) [9-Methoxy-5-morphilinoethylamino CPT],IC50,[1],> 30000 nM
CC[C@@]1(O)C(=O)OCc2c1cc1n(c2=O)C(NCCN2CCCCC2)c2cc3c(OC)cccc3nc2-1 (stereo partly shown) [9-Methoxy-5-piperidinoethylamino CPT],IC50,[1],28100 nM
CC[C@@]1(O)C(=O)OCc2c1cc1n(c2=O)C(NCCN2CCCC2)c2cc3c(OC)cccc3nc2-1 (stereo partly shown) [9-Methoxy-5-pyrrolidinoethylamino CPT],IC50,[1],31600 nM
CC[C@@]1(O)C(=O)OCc2c1cc1n(c2=O)Cc2cc3ccccc3nc2-1 [20(S)-Camptothecin],water solubility (in words),[2],low water solubility
same,inhibition of topoisomerase I (in words),topoisomerase I,inhibitor of topoisomerise I
same,side effects / toxicity (in words),[3],unacceptable side effects on humans; also recorded: high toxicity problems
CCc1c2c(nc3ccc(OC(=O)N4CCC(N5CCCCC5)CC4)cc13)-c1cc3c(c(=O)n1C2)COC(=O)[C@]3(O)CC [CPT-11],percentage (%) of lactone form at equilibrium (in words),Human Serum Albumin,a higher percentage (%) of lactone form at equilibrium than 20(S) camptothecin of the formula 2 and 9-aminocamptothecin of the formula 5
"CC[C@@]1(O)C(=O)OCc2c1cc1n(c2=O)C(NO)c2cc3ccccc3nc2-1 (stereo partly shown) [Example 1, 5-Hydroxylaminocamptothecin]",IC50,[1],2390 nM
same,GI50,MOLT-4,180 nM
same,GI50,HL 60,380 nM
same,GI50,SR,530 nM
same,GI50,H 460,480 nM
same,GI50,HOP 62,380 nM
same,GI50,H 522,200 nM
same,GI50,H 23,1620 nM
same,GI50,SF-539,1200 nM
same,GI50,SF 295,250 nM
same,GI50,786-O,560 nM
same,GI50,ACHN,400 nM
same,GI50,LOX IMVI,3380 nM
same,GI50,UACC 62,370 nM
same,GI50,M-14,370 nM
same,GI50,SK MEL-5,3380 nM
same,GI50,MCF-7,340 nM
same,GI50,MCF7/ADR,2180 nM
same,GI50,T 47D,200 nM
"CC[C@@]1(O)C(=O)OCc2c1cc1n(c2=O)C(NCCO)c2cc3ccccc3nc2-1 (stereo partly shown) [Example 2, 5-(2'-hydroxyethylamino)camptothecin]",IC50,[1],> 30000 nM
"CC[C@@]1(O)C(=O)OCc2c1cc1n(c2=O)C(NCCN(C)C)c2cc3ccccc3nc2-1 (stereo partly shown) [Example 4, 5-(N,N-Dimethylethylenediamino)camptothecin]",IC50,[1],> 30000 nM
"CC[C@@]1(O)C(=O)OCc2c1cc1n(c2=O)C(NCc2ccccc2)c2cc3ccccc3nc2-1 (stereo partly shown) [Example 5, 5-Benzylaminocamptothecin]",IC50,[1],> 30000 nM
"CC[C@@]1(O)C(=O)OCc2c1cc1n(c2=O)C(NCCCl)c2cc3ccccc3nc2-1 (stereo partly shown) [Example 6, 5-(2'-chloroethylamino)camptothecin]",IC50,[1],19000 nM
"CC[C@@]1(O)C(=O)OCc2c1cc1n(c2=O)C(NCCN(C)C)c2cc3c(OC)cccc3nc2-1 (stereo partly shown) [Example 7, 5-(N,N-Dimethylethylenediamino)-9-methoxycamptothecin]",IC50,[1],9540 nM
CC[C@@]1(O)C(=O)OCc2c1cc1n(c2=O)C(NCC(O)CO)c2cc3c(OC)cccc3nc2-1 (stereo partly shown) [Example 9],IC50,[1],6600 nM
"CC[C@@]1(O)C(=O)OCc2c1cc1n(c2=O)C(NCCCCO)c2cc3c(OC)cccc3nc2-1 (stereo partly shown) [Example 10, 5-(4'-hydroxybutylamino)-9-methoxycamptothecin]",IC50,[1],13100 nM
"CC[C@@]1(O)C(=O)OCc2c1cc1n(c2=O)C(NO)c2cc3cc(O)ccc3nc2-1 (stereo partly shown) [Example 11, 10-Hydroxy-5-hydroxylaminocamptothecin]",IC50,[1],10000 nM
same,GI50,MOLT-4,10 nM
same,GI50,HL 60,1860 nM
same,GI50,SR,100 nM
same,GI50,H 460,1540 nM
same,GI50,HOP 62,7410 nM
same,GI50,H 522,5370 nM
same,GI50,H 23,4160 nM
same,GI50,SF-268,2450 nM
same,GI50,SF-539,3160 nM
same,GI50,SF 295,4890 nM
same,GI50,786-O,2690 nM
same,GI50,ACHN,3160 nM
same,GI50,CAKI-1,4260 nM
same,GI50,LOX IMVI,2690 nM
same,GI50,UACC 62,4160 nM
same,GI50,M-14,4260 nM
same,GI50,SK MEL-5,15000 nM
same,GI50,MCF-7,4070 nM
same,GI50,MCF7/ADR,> 30000 nM
same,GI50,T 47D,1280 nM
"CC[C@@]1(O)C(=O)OCc2c1cc1n(c2=O)C(NC)c2cc3ccccc3nc2-1 (stereo partly shown) [Example 12, 5-Methylaminocamptothecin]",IC50,[1],4670 nM
same,GI50,CCRF-CEM,230 nM
same,GI50,MOLT-4,150 nM
same,GI50,HL 60,220 nM
same,GI50,SR,30 nM
same,GI50,HOP 62,1730 nM
same,GI50,H 522,2880 nM
same,GI50,H 23,2570 nM
same,GI50,SF-268,850 nM
same,GI50,SF-539,1810 nM
same,GI50,SF 295,1120 nM
same,GI50,786-O,4070 nM
same,GI50,ACHN,970 nM
same,GI50,CAKI-1,2290 nM
same,GI50,LOX IMVI,2340 nM
same,GI50,M-14,2180 nM
same,GI50,SK MEL-5,2510 nM
same,GI50,MCF-7,1250 nM
same,GI50,MCF7/ADR,1940 nM
same,GI50,T 47D,4670 nM
"CC[C@@]1(O)C(=O)OCc2c1cc1n(c2=O)C(NCCN2CCCC2)c2cc3ccccc3nc2-1 (stereo partly shown) [Example 15, 5-(Pyrrolidinoethylamino)camptothecin]",IC50,[1],> 30000 nM
"CC[C@@]1(O)C(=O)OCc2c1cc1n(c2=O)C(NCCN2CCCCC2)c2cc3ccccc3nc2-1 (stereo partly shown) [Example 16, 5-(Piperidinoethylamino)camptothecin]",IC50,[1],23400 nM
"CCc1c2c(nc3ccc(O)cc13)-c1cc3c(c(=O)n1C2)COC(=O)[C@]3(O)CC [SN-38, 7-ethyl-10-hydroxycamptothecin]",percentage (%) of lactone form at equilibrium (in words),Human Serum Albumin,a higher percentage (%) of lactone form at equilibrium than 20(S) camptothecin of the formula 2 and 9-aminocamptothecin of the formula 5
CC[C@@]1(O)C(=O)OCc2c1cc1n(c2=O)Cc2cc3c(CN(C)C)c(O)ccc3nc2-1 [Topotecan],percentage (%) of lactone form at equilibrium (in words),Human Serum Albumin,a higher percentage (%) of lactone form at equilibrium than 20(S) camptothecin of the formula 2 and 9-aminocamptothecin of the formula 5
CCc1c2c(nc3ccc(OC)cc13)-c1cc3c(c(=O)n1C2)COC(=O)[C@]3(N)CC [formula 6],in vivo antitumor activity (in words),[4],increased in vivo antitumor activity than 20(RS)-camptothecin
C=C1C(=O)OCc2c1cc1n(c2=O)Cc2c-1nc1ccc(O)cc1c2CC [formula 8],inhibition of topoisomerase I (in words),topoisomerase I,potent camptothecin like inhibition of topoisomerase I activity
